# Assay results reported in ChEMBL document CHEMBL4699524 (Bioorg Med Chem Lett, 2020).
# What was measured:
# Plasmodium falciparum [1] = test: Antiplasmodial activity against chloroquine-resistant Plasmodium falciparum Dd2 by LDH assay; format: functional, organism-based
# CHO = test: Cytotoxicity against CHO cells assessed as reduction in cell viability by MTT assay; format: cell-based; details: Cricetulus griseus
# [2] = Selectivity index, ratio of IC50 for CHO cells to IC50 for antileishmanial activity against Leishmania donovani 1S by resazurin dye based assay; format: toxicity; details: hamster, read-out: Ratio IC50
# [3] = Selectivity index, ratio of IC50 for antileishmanial activity against Leishmania major IR-173 promastigotes to IC50 for antileishmanial activity against Leishmania donovani 9515 promastigotes incubated for 72 hrs by resazurin dye based assay; format: functional
# Leishmania donovani [4] = test: Antileishmanial activity against Leishmania donovani 9515 promastigotes assessed as inhibition of parasite growth incubated for 72 hrs by resazurin dye based assay; format: functional, organism-based; details: Leishmania donovani, 9515, 72 h
# Plasmodium falciparum [5] = test: Antiplasmodial activity against chloroquine-sensitive Plasmodium falciparum NF54 by LDH assay; format: functional, organism-based
# Leishmania major = test: Antileishmanial activity against Leishmania major IR-173 promastigotes assessed as inhibition of parasite growth incubated for 72 hrs by resazurin dye based assay; format: functional, organism-based; details: IR-173, 72 h
# [6] = Selectivity index, ratio of IC50 for CHO cells to IC50 for antileishmanial activity against Leishmania donovani 9515 by resazurin dye based assay; format: toxicity; details: hamster, read-out: Ratio IC50
# in vitro = details: hamster, CHO cells
# Leishmania donovani [7] = test: Antileishmanial activity against Leishmania donovani 1S promastigotes assessed as inhibition of parasite growth incubated for 72 hrs by resazurin dye based assay; format: functional, organism-based
# [8] = Selectivity index, ratio of IC50 for antileishmanial activity against Leishmania major IR-173 promastigotes to IC50 for antileishmanial activity against Leishmania donovani 1S promastigotes incubated for 72 hrs by resazurin dye based assay; format: functional
# Leishmania donovani [9] = test: Potency index, ratio of artesunate IC50 to test compound IC50 for antileishmanial activity against Leishmania donovani 9515 promastigotes incubated for 72 hrs by resazurin dye based assay; format: functional
# Leishmania donovani [10] = test: Potency index, ratio of dihydroartemisinin IC50 to test compound IC50 for antileishmanial activity against Leishmania donovani 1S promastigotes incubated for 72 hrs by resazurin dye based assay; format: functional
# Leishmania donovani [11] = test: Potency index, ratio of artemether IC50 to test compound IC50 for antileishmanial activity against Leishmania donovani 1S promastigotes incubated for 72 hrs by resazurin dye based assay; format: functional
# Leishmania donovani [12] = test: Potency index, ratio of artesunate IC50 to test compound IC50 for antileishmanial activity against Leishmania donovani 1S promastigotes incubated for 72 hrs by resazurin dye based assay; format: functional
# Leishmania donovani [13] = test: Potency index, ratio of dihydroartemisinin IC50 to test compound IC50 for antileishmanial activity against Leishmania donovani 9515 promastigotes incubated for 72 hrs by resazurin dye based assay; format: functional
# Leishmania donovani [14] = test: Potency index, ratio of artemether IC50 to test compound IC50 for antileishmanial activity against Leishmania donovani 9515 promastigotes incubated for 72 hrs by resazurin dye based assay; format: functional
structure (smiles),measurement,setting,value
C[C@@H]1CC[C@H]2C(C)(C=O)O[C@@H]3O[C@@]4(C)CC[C@@H]1[C@]32OO4 (stereo partly specified),IC50,Plasmodium falciparum [1],4.1 nM
same,IC50,CHO,> 100 µM
same,selectivity ratio,[2],> 39
same,Ratio IC50,[3],3
same,IC50,Leishmania donovani [4],2.55 µM
same,IC50,Plasmodium falciparum [5],6.9 nM
same,IC50,Leishmania major,26.6 µM
same,selectivity ratio,[6],13
same,selectivity ratio,in vitro,4
same,IC50,Leishmania donovani [7],8.07 µM
same,Ratio IC50,[8],3
Cc1csc(C(=O)OCC2(C)O[C@@H]3O[C@@]4(C)CC[C@H]5[C@H](C)CC[C@@H]2[C@@]35OO4)c1 (stereo partly specified),Ratio IC50,Leishmania donovani [9],30
same,IC50,Plasmodium falciparum [1],7.1 nM
same,Ratio IC50,Leishmania donovani [10],30
same,IC50,CHO,> 100 µM
same,selectivity ratio,[2],> 15
same,IC50,Leishmania donovani [4],6.48 µM
same,IC50,Plasmodium falciparum [5],7.2 nM
same,IC50,Leishmania major,4.26 µM
same,selectivity ratio,[6],18
same,Ratio IC50,Leishmania donovani [11],30
same,selectivity ratio,in vitro,24
same,IC50,Leishmania donovani [7],5.61 µM
same,Ratio IC50,Leishmania donovani [12],30
same,Ratio IC50,Leishmania donovani [13],30
same,Ratio IC50,Leishmania donovani [14],30
